Patent US20240277641A1, “METHODS FOR TREATING NERVOUS SYSTEM DISORDERS WITH […] AGENTS” (PAXMEDICA, INC., priority 2021, published 2024)
Like-named read-outs stand apart in the source and are kept apart here.

Legend:
[1] = test system: mouse model of epilepsy; conditions: cited from earlier work
[2] = Suramin plasma pharmacokinetics in three-arm, randomized, double blind, placebo-controlled trial, intravenous infusion; type: in vivo, human; conditions: for Plasma Concentration / AUCInterval / AUCinterval/Dose / Cmax/Dose / Cmin / AUCOverall / AUCVisit 4 / AUCVisit 5 / AUCVisit 7 / Cmin, Visit 5 / Cmin, Visit 7 / Cmin. overall / Cmax / concentration at 28 day: mean; for half-life / Cmax / concentration at 28 day: male, human, plasma; for half-life: intravenous; for concentration at 28 day: read-out: Cmin, Visit 4
Description: The following Table 2 outlines the visit schedule:
A non-compartmental pharmacokinetic (PK) approach consistent with the intravenous route of administration was used to estimate PK parameters in Watson LIMS software (version 7.5). […] All concentration values were in μg/mL, and all time points were in days as provided by the bioanalytical testing facility. Nominal dose concentrations and sampling times were used. The area under the plasma concentration-time curve (AUC) estimations were calculated on profiles having at least a quantifiable post-dose and pre-dose prior to the next dosing occasion. The observed maximum plasma concentration (Cmax) and time of Cmax (Tmax) were determined directly from the data.
Pharmacokinetic parameters were estimated using a non-compartmental approach consistent with intravenous infusion route of administration.
For area under the curve (AUC) estimation, measured plasma concentration for post dose and pre dose before the next dosing event were needed. For this study, samples for pharmacokinetic analysis were collected on days 1, 28, 56, and 96.
Whenever possible, standard deviation and coefficient of variation were determined by Watson LIMS software. For analyses that were not supported by Watson (i.e. custom comparisons), Excel was used and the statistics reported as determined by excel algorithms. Note that in either case, when the number of data points was less than three, standard deviation and coefficient of variation could not be calculated.
The route of administration was intravenous infusion over a 30 minute period on visits 2, 4, and 5.

[3] = test system: male children with Autism Spectrum Disorder (ASD); assay: Efficacy by Aberrant Behavior Checklist (ABC) versus suramin blood levels in the ASD trial; type: in vivo, human; conditions: 10 or 20 mg/kg IV
Description: (§1) This is the first time that multiple doses were studied in patients with neurodevelopmental disorders, and where they were observed over a long term duration. Previously, only a single 20 mg/kg dose had been described in an ASD study. See, R. K. Naviaux, “Antipurinergic therapy for autism—An in-depth review”, Mitochondrion 43, pp. 1-15 (2018), available online Dec. 16, 2017.
Each study participant attended a total of 7 visits, screening period (Visit 1.14 days), Randomization visit (Visit 2 day 1), treatment follow up visits (visit 3; day 14), treatment visit (visit 4; Day 28), treatment visit (visit 5; Day 56), End of treatment visit (visit 6; Day 77) and EOS (visit 7; day 98). Window period for screening until visit 2 will be ±14 days (thus the study procedures can be performed over 14 days) and for visit 2 onwards will be ±2 days (thus the procedures can be performed over 5 days) (Visit 2 to 7).

[4] = test system: male children with Autism Spectrum Disorder (ASD); assay: Adverse effects in the ASD trial; type: in vivo, human
Description: as §1
Since only predose, 1 hour post dose, and before the next dose administration samples were collected, it was not possible to determine the exact distribution and elimination curves and therefore extrapolated parameters such as AUC0-∞ and T1/2 were not determinable.

[5] = cited from earlier work
[6] = 10 mg/kg to 20 mg/kg dose range
[7] = Table 3A, 10 mg dose group, IV, children
[8] = Table 3C, 20 mg dose group, IV, children
[9] = Table 7, 10 mg/kg Dose, n = 13, IV
[10] = Table 7, 20 mg/kg Dose, n = 14, IV

## O=C(NCC1(N2CCN(c3ccccc3)CC2)CCOCC1)c1cccnc1Sc1ccccc1 [JNJ-47965567, 2-(Phenylthio)-N-[[tetrahydro-4-(4-phenyl-1-piperazinyl)-2H-pyran-4-yl]methyl]-3-pyridinecarboxamide]
[1]
  epileptic seizures: suppress epileptic seizures

## Cc1ccc(C(=O)Nc2ccc(S(=O)(=O)O)c3cc(S(=O)(=O)O)cc(S(=O)(=O)O)c23)cc1NC(=O)c1cccc(NC(=O)Nc2cccc(C(=O)Nc3cc(C(=O)Nc4ccc(S(=O)(=O)O)c5cc(S(=O)(=O)O)cc(S(=O)(=O)O)c45)ccc3C)c2)c1 [suramin, 1,3,5-Naphthalenetrisulfonic acid, 8,8′-[carbonylbis[imino-3,1-phenylenecarbonylimino(4-methyl-3,1-phenylene)carbonylimino]]bis-]
[2]; 10 mg/kg IV, visit 2, day 1, 1 h post-infusion
  Plasma Concentration: 229000 ng/mL
[2]; 10 mg/kg IV, visit 4, day 28, 1 h post-infusion
  Plasma Concentration: 157000 ng/mL
[2]; 10 mg/kg IV, visit 4, day 28, pre-dose
  Plasma Concentration: 4310 ng/mL
[2]; 10 mg/kg IV, visit 5, day 56, 1 h post-infusion
  Plasma Concentration: 164000 ng/mL
[2]; 10 mg/kg IV, visit 5, day 56, pre-dose
  Plasma Concentration: 7960 ng/mL
[2]; 10 mg/kg IV, visit 7, day 96, EOS
  Plasma Concentration: 7870 ng/mL
[2]; [6]
  Dose proportionality of AUC0-96: nearly dose proportional
  Dose proportionality of Cmax: less than dose proportional
[2]; 20 mg/kg IV, visit 2, day 1, 1 h post-infusion
  Plasma Concentration: 328000 ng/mL
[2]; 20 mg/kg IV, visit 4, day 28, 1 h post-infusion
  Plasma Concentration: 327000 ng/mL
[2]; 20 mg/kg IV, visit 4, day 28, pre-dose
  Plasma Concentration: 11000 ng/mL
[2]; 20 mg/kg IV, visit 5, day 56, 1 h post-infusion
  Plasma Concentration: 332000 ng/mL
[2]; 20 mg/kg IV, visit 5, day 56, pre-dose
  Plasma Concentration: 21100 ng/mL
[2]; 20 mg/kg IV, visit 7, day 96, EOS
  Plasma Concentration: 23400 ng/mL
[2]; [7]
  AUCInterval: 4780 µg·days/mL
  AUCinterval/Dose: 478 µg·days/mL/mg
  Cmax/Dose: 24.4 µg/mL/mg
  Cmin: 4300 ng/mL
[2]; [8]
  AUCInterval: 9510 µg·days/mL
  AUCinterval/Dose: 475 µg·days/mL/mg
  Cmax/Dose: 18.3 µg/mL/mg
  Cmin: 10600 ng/mL
[2]; [9]
  AUCOverall: 4600.0 µg·days/mL
  AUCVisit 4: 1195.6 µg·days/mL
  AUCVisit 5: 1386.7 µg·days/mL
  AUCVisit 7: 2017.7 µg·days/mL
  AUCinterval/Dose: 460.0 µg·days/mL/mg
  Cmax/Dose: 18.1 µg/mL/mg
  Cmin, Visit 5: 7700 ng/mL
  Cmin, Visit 7: 7700 ng/mL
  Cmin. overall: 4400 ng/mL
  concentration at 28 day: 4400 ng/mL
[2]; [10]
  AUCOverall: 10203.6 µg·days/mL
  AUCVisit 4: 2431.4 µg·days/mL
  AUCVisit 5: 3121.4 µg·days/mL
  AUCVisit 7: 4650.7 µg·days/mL
  AUCinterval/Dose: 510.1 µg·days/mL/mg
  Cmax/Dose: 18.0 µg/mL/mg
  Cmin, Visit 5: 21900 ng/mL
  Cmin, Visit 7: 24200 ng/mL
  Cmin. overall: 10600 ng/mL
  concentration at 28 day: 10900 ng/mL
[2]; 10 mg low dose level, inferred from lack of accumulation
  half-life: < 28 days
[2]; 20 mg high dose level, inferred from accumulation
  half-life: > 28 days
[2]; Table 3A, 10 mg dose group, IV, children, read-out: Cmax
  Cmax: 244000 ng/mL
[2]; Table 3C, 20 mg dose group, IV, children, read-out: Cmax
  Cmax: 365000 ng/mL
[2]; Table 7, 10 mg/kg Dose, n = 13, IV, read-out: Cmax, Oveall
  Cmax: 181000 ng/mL
[2]; Table 7, 20 mg/kg Dose, n = 14, IV, read-out: Cmax, Oveall
  Cmax: 359000 ng/mL
[3]
  change in ABC scores from baseline versus exposure: A greater change in ABC scores from baseline was observed with lower exposures
[3]; multiple doses
  correlation between blood levels and efficacy (ABC): dynamic nonlinear correlation between antipurinergic blood levels and efficacy
[4]; 10 mg/kg dose group
  adverse effects such as visible rash or vomiting: only one event
[4]; 20 mg/kg dose group
  adverse effects such as visible rash or vomiting: occurred mostly in the 20 mg/kg dose group
[5]; average
  half-life, average: 50 days
[5]; in vivo, po
  oral bioavailability: poor oral bioavailability
